BigSolDB 2.1

Nc1ccc(S(=O)(=O)O)cc1
solubility (mole fraction)
Details | in acetic acid | in acetone | in acetonitrile | in ethanol | in formic acid | in isopropanol | in methanol
278.15 K | – | 0.000291 | 0.000132 | 0.000213 | 0.00106 | 0.000253 | 0.000247
283.15 K | – | 0.000296 | 0.000144 | 0.000231 | 0.00116 | 0.00027 | 0.000263
288.15 K | 0.00204 | 0.000303 | 0.000165 | 0.000251 | 0.00129 | 0.000303 | 0.000284
293.15 K | 0.00217 | 0.00031 | 0.000178 | 0.000264 | 0.00139 | 0.000318 | 0.000299
298.15 K | 0.00227 | 0.000317 | 0.000195 | 0.000284 | 0.00152 | 0.000348 | 0.000318
303.15 K | 0.0024 | 0.000324 | 0.000214 | 0.0003 | 0.00166 | 0.000373 | 0.000342
308.15 K | 0.00252 | 0.000332 | 0.000235 | 0.000323 | 0.00181 | 0.000403 | 0.000362
313.15 K | 0.00264 | 0.000338 | 0.000255 | 0.000338 | 0.00196 | 0.000429 | 0.000383
318.15 K | 0.00277 | 0.000346 | 0.000274 | 0.000363 | 0.00213 | 0.000461 | 0.000403
323.15 K | 0.00291 | 0.000353 | 0.000301 | 0.000385 | 0.00231 | 0.000494 | 0.000432
328.15 K | 0.00304 | 0.00036 | 0.000324 | 0.000403 | 0.00247 | 0.000525 | 0.00045
